Here are results for three molecules from article PMC2955773 (ACS chemical biology, 2010).

Series [1] concerns the target T1, Nox2 (Homo sapiens, UniProt P04839).
T1 sequence (P04839 2-570 limits assumed): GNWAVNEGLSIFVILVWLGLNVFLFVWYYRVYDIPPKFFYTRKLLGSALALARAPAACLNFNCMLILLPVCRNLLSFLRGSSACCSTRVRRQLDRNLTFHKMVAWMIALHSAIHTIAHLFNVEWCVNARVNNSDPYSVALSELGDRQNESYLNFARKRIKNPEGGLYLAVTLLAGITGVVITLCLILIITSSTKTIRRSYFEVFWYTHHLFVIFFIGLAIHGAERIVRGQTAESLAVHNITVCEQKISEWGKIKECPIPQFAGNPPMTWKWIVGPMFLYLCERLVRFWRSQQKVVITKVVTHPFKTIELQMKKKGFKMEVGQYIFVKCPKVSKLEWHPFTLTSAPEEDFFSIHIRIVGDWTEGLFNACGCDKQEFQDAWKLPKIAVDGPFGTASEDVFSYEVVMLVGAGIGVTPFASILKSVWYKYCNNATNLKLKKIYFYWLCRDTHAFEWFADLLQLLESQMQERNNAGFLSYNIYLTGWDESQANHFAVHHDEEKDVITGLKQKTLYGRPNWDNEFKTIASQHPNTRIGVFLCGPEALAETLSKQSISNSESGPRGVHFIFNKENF
T1 sequence (P13498 2-195 partner limits assumed): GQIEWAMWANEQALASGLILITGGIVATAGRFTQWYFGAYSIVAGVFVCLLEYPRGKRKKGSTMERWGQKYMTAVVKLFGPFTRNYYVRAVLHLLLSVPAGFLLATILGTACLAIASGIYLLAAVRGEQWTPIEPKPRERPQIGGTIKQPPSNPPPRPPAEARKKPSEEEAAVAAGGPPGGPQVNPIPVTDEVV
As to the kind of experiment: HEK293-Nox2 selectivity assay. The format is cell-based.

Another series deals with T2, Nox3 (Homo sapiens, UniProt Q9HBY0).
T2 sequence (Q9HBY0 1-568): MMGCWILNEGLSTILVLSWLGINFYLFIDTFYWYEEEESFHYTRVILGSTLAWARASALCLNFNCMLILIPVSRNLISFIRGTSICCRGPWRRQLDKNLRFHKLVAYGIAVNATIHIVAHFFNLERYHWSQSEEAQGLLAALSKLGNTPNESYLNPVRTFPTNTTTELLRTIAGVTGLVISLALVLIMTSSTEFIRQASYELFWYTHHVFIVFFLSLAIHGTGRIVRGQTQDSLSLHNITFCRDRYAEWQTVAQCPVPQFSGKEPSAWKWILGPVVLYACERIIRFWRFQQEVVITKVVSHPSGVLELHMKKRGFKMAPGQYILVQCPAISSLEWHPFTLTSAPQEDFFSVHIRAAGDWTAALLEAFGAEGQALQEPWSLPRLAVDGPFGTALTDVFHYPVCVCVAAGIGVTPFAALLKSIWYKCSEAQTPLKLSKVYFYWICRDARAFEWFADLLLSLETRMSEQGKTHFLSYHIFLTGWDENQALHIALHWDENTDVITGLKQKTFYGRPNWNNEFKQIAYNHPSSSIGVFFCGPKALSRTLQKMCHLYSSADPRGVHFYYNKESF
T2 sequence (P13498 2-195 partner limits assumed): T1 sequence (P13498 2-195 partner limits assumed)
As to the kind of experiment: HEK293-Nox3 selectivity assay. The format is cell-based.

The next series concerns the target T3, Nox4 (Homo sapiens, UniProt Q9NPH5).
T3 sequence (Q9NPH5 1-578): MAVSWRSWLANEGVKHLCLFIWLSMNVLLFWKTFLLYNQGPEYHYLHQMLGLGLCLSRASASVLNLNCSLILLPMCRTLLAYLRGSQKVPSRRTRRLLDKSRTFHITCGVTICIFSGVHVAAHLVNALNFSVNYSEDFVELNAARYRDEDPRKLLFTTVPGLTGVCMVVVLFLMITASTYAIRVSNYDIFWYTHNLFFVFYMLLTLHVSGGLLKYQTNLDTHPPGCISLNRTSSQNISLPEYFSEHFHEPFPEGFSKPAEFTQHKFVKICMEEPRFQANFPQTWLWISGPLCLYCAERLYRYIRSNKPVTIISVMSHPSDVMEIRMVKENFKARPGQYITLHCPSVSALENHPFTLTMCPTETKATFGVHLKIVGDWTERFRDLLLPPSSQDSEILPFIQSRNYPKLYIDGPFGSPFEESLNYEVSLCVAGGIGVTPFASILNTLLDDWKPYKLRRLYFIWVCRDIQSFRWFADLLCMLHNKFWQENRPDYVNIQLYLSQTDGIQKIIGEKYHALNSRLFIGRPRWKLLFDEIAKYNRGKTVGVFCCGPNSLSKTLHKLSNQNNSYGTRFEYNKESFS
T3 sequence (P13498 2-195 partner limits assumed): T1 sequence (P13498 2-195 partner limits assumed)
Kind of series: HEK293-Nox4 selectivity assay. The class given is cell-based.

For the next series, the system named is HT29 cells. Kind of series: CellTiter Glo toxicity assay. The class given is cell-based. The conditions noted are these: 10 μM in HT29 cells. (Cellular ATP, detected with luciferase, serves as a proxy for viable cell number.)
In series [2] the test system is mitochondrial ROS generation in DLD1. As to the kind of experiment: Mitochondrial ROS generation by MitoSox dye. As to conditions: compared to DMSO. The class given is cell-based, human.
Series [3] deals with T1, Nox2. Kind of series: Nox2 cell-free system. The format is biochemical. The conditions noted are these: 10 μM.
For series [4], the target named is T1, Nox2. Kind of series: Superoxide production in fMLP-treated human neutrophils. The format is cell-based. As to conditions: 10 μM.
The subject of series [5] is DLD1 cells. As to the kind of experiment: ECM degradation assay. The format is cell-based, human. As to conditions: SrcYF-transfected DLD1 cells, 10 μM, 1.5hrs.
In the next series the target is xanthine oxidase (XO) (Bos taurus, UniProt P80457). As to the kind of experiment: Xanthine oxidase specificity assay. The class given is biochemical.
Chain of xanthine oxidase (XO) (P80457 2-1332): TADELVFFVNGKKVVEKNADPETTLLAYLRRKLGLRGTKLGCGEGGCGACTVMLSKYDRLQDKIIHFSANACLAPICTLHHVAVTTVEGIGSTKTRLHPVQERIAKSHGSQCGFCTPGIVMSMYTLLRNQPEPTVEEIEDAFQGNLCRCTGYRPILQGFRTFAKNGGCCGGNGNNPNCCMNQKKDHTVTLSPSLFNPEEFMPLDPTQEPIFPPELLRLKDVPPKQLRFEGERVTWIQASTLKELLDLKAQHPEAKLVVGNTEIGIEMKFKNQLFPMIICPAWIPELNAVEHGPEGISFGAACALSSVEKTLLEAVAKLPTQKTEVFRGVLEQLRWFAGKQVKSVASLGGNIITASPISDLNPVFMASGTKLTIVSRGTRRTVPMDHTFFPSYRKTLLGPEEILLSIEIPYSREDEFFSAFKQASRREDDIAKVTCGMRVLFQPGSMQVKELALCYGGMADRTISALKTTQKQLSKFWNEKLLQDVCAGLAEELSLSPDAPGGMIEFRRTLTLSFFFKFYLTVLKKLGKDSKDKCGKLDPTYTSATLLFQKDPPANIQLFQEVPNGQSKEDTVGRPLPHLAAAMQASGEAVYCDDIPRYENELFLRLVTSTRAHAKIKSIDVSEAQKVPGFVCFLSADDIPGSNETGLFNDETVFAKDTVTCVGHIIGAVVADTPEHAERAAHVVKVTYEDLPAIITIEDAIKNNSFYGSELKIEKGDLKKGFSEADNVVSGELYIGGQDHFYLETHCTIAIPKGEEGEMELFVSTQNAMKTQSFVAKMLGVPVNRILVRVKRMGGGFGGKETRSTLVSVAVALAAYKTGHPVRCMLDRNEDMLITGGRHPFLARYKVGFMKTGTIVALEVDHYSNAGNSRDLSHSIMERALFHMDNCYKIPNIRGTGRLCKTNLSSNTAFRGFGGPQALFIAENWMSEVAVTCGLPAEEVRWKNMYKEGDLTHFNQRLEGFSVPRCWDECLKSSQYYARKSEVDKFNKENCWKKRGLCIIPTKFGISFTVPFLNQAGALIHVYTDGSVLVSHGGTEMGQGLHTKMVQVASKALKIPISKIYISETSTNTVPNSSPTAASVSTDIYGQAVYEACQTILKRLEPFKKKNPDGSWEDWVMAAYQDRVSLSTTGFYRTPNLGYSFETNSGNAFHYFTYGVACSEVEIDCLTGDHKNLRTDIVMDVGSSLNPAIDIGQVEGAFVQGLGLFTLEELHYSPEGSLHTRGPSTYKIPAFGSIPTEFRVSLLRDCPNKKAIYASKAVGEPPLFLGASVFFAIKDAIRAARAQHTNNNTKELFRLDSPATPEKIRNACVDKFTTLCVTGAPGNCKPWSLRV
A further series has as its system ROS production. Kind of series: ROS production measured by carboxy-H2-DCFDA staining. The class given is cell-based. The conditions noted are these: second method of ROS detection.
In a further series the target is Rac1 (Homo sapiens, UniProt P63000). Kind of series: Rac loading assay. The class given is biochemical. As to conditions: recombinant Rac1, compared with Mg2+ positive control.
Series [6] concerns the target serotonin 5-HT2B receptor (Homo sapiens, UniProt P41595). Kind of series: Competitive binding assay. On the set-up: species or system human or rodent.
The target in series [7] is T4, serotonin 5-HT2C receptor (Homo sapiens, UniProt P28335).
T4 sequence (P28335 33-458): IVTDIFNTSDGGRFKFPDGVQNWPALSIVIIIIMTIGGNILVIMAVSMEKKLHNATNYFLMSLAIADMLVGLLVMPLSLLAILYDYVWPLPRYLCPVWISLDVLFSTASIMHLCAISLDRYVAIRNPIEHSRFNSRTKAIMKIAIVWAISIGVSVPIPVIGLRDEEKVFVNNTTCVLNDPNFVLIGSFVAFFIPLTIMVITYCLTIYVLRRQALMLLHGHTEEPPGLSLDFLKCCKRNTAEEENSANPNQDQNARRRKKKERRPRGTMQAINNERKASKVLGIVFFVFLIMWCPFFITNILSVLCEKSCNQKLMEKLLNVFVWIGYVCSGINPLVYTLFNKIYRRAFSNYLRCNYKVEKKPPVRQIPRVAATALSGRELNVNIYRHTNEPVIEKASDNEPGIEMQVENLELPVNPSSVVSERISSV
As to the kind of experiment: Competitive binding assay. On the set-up: species or system human or rodent.

Series [8] concerns the target T5, adrenergic alpha2C receptor (Homo sapiens, UniProt P18825).
T5 sequence (P18825 1-462): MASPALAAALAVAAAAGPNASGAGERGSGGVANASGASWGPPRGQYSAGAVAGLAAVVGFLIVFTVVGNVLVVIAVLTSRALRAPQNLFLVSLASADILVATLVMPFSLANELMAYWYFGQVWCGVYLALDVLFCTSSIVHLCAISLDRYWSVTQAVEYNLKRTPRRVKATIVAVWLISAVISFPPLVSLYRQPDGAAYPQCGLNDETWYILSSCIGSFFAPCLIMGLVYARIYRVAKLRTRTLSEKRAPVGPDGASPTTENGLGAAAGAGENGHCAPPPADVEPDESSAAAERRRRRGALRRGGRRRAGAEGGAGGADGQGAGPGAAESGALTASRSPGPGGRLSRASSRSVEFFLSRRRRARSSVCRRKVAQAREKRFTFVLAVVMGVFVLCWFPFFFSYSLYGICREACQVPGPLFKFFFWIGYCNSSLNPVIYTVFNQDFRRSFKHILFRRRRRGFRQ
Kind of series: Competitive binding assay. On the set-up: species or system human or rodent.

Series [9] concerns G-protein coupled receptors (GPCRs), channels and transporters expressed in the CNS. As to the kind of experiment: Competitive binding to a large battery of CNS receptors. Also noted: species or system human or rodent.
The test system of series [10] is DLD1 cells. As to the kind of experiment: SrcYF-induced invadopodia formation. As to conditions: SrcYF-transfected DLD1 cells, treated 1hr; ML171 10 μM. The class given is cell-based, human.
The target of the next series is T6, Nox1 (Homo sapiens, UniProt Q9Y5S8).
T6 sequence (Q9Y5S8 1-564): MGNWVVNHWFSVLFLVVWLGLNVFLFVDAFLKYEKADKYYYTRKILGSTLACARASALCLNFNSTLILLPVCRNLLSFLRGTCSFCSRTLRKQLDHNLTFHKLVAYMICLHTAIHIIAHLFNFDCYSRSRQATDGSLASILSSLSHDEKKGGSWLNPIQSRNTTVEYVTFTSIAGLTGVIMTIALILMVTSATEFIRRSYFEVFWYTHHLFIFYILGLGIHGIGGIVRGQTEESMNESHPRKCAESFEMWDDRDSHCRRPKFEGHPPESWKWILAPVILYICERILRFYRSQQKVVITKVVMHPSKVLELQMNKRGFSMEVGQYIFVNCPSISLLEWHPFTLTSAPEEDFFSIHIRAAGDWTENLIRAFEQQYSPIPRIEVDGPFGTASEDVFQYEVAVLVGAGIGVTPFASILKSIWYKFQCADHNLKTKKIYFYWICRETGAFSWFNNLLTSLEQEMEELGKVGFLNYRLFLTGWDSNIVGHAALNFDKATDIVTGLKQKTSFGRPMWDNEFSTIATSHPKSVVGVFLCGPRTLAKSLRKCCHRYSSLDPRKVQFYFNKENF
T6 sequence (P13498 2-195 partner limits assumed): T1 sequence (P13498 2-195 partner limits assumed)
Kind of series: HEK293-Nox1 reconstituted cell system, ROS generation by CL assay. As to conditions: HEK293-Nox1 reconstituted cell system treated with ML171.

Where [11] appears, read: secondary concentration-response analysis.

Chain of serotonin 5-HT2B receptor (P41595 whole entry): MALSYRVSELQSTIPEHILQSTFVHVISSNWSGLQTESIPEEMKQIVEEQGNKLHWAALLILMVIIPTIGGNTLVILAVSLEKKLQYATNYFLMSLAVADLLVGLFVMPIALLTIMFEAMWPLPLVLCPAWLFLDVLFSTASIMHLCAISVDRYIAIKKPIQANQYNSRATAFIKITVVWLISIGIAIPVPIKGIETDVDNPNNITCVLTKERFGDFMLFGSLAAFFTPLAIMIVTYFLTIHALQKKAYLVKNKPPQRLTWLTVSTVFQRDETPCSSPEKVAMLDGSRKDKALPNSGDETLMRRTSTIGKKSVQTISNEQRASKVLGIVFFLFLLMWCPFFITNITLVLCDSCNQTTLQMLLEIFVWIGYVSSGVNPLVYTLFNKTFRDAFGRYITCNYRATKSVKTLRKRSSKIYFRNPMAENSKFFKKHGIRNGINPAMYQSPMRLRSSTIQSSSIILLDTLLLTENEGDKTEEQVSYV

Consider `FC(F)(F)c1ccc2c(c1)Nc1ccccc1S2`, for which the “activity on other Nox isoforms” value on Nox2 [1], at Nox3 and at Nox4 was “only a marginal activity” throughout. Moreover, in the series with HT29 cells, the cell death entry is “did not cause cell death”.
As to `c1ccc2c(c1)[I+]c1ccccc1-2` [DPI, diphenylene iodonium, reference compound], in [2], the “mitochondrial ROS generation” value is listed as “slightly reduced ROS generation in mitochondria”. The “superoxide formation” value on Nox2 [3] and on Nox2 [4] was “dramatically inhibit superoxide formation” throughout. Further, in the series with DLD1 cells [5], the ECM degradation entry is listed as “blocked this effect”.
For the molecule `CC(=O)c1ccc2c(c1)Nc1ccccc1S2` [ML171, 2-acetylphenothiazine], on xanthine oxidase (XO), the “inhibition of XO-dependent ROS generation” value is “unable to inhibit XO-dependent ROS generation”. For the same molecule, in the series with ROS production, the “ROS production by carboxy-H2-DCFDA staining” value is on record as “efficiently blocks ROS production”. Besides, the “mitochondrial ROS generation” value in [2] is on record as “did not decrease mitochondrial ROS generation”. In addition, on Rac1, the “block of Rac1 loading with GTP” value is given as “only marginally block Rac1 loading”. Further, the “% of inhibition” value in series [6] (primary binding assay), in [7] (primary binding assay) and in series [8] (primary binding assay) was more than 60% throughout. Moreover, the Ki entry in series [6] (setting [11]), in series [7] (setting [11]) and in series [8] (setting [11]) was “micromolar range” throughout. Also, the “binding to receptors of the battery” value in [9] was “did not significantly bind most of the receptors tested”. Moreover, the invadopodia formation entry in the series with DLD1 cells [10] is given as “strongly decreased SrcYF-induced invadopodia formation”. Further, the ECM degradation result in the series with DLD1 cells [5] is reported as “strongly reduced the ability of SrcYF-transfected DLD1 cells to degrade the ECM”. Further, the “rescue of ROS generation by over-expression of Nox1, NoxA1 or NoxO1” value at Nox1 is reported as “only increasing over-expression of Nox1 could rescue ROS generation”.
